# Results from patent US12102607B2, “C5aR inhibitors for use in the treatment of chemotherapy-induced iatrogenic pain” (Dompe' Farmaceutici S.P.A., priority 2017, dated 2024).
# B1: C5a: recombinant mouse C5a, complement peptide fragment, purchased from R&D (protein, UniProt P06684 679-755, looked up)
# C5a anaphylatoxin: NLHLLRQKIEEQAAKYKHSVPKKCCYDGARVNFYETCEERVARVTIGPLCIRAFNECCTIANKIRKESPHKPVQLGR
# modifications: C5a anaphylatoxin
# notes: recombinant mouse C5a, complement peptide fragment, purchased from R&D
# Experiments:
# [1] = test system: acetylated α-Tubulin; experiment: In-cell western analysis of acetylated α-Tubulin in DRG neurons; assay type: cell-based, Sprague Dawley rat; settings: for Acetylated α-Tubulin (% of UT): DRG neurons
# Description: (§1) Dorsal Root Ganglion neurons were obtained by dissociation of post natal (P2) Sprague Dawley rat ganglia (Envigo, Bresso Italy), following well-defined protocols (O'Meara et al, 2011; Owen et al, 2012). To minimize introduction of contaminating cells into the culture, any excessively long roots were trimmed from DRGs. After the isolation, DRGs were enzymatically dissociated as follows: • 20 minutes of 1.5 mg/ml papain exposure at 37° C., • 30 minutes of 4 mg/ml collagenase exposure at 37° C.
# (§2) Subsequently, cells were mechanically dissociated with a fire polished glass Pasteur pipette, in order to obtain a single cell suspension.
# (§3) Once dissociation was achieved, cells were seeded onto 96 black multiwell plates coated with Laminin (10 ug/mL, overnight at Room Temperature, RT) at selected densities. Following 1 week of incubation in DMEM high glucose medium supplemented with 10% FBS, 1× N2, 1× B27, 100 IU/mI penicillin, […] streptomycin, cells were treated according to experimental needs.
# Dorsal Root Ganglion neurons isolated as previously reported were subjected to the following experimental challenge scheme as depicted in FIG. 10.
# Paclitaxel, C5a and drugs were administered 24 hr prior the in-cell western experiment. Following 24 hr of treatment with appropriate stimuli as previously indicated, cells were washed with 1×PBS and fixed with 3,7% formaldehyde for 15 min. After the removal of fixing solution, cells were washed with 1×PBS and permeabilized with 1×PBS-0,1% Triton X-100 for 5 min at RT. Cells were then stained over night at 4° C. with the anti-acetylated α-Tubulin antibody, diluted 1:500 in Odyssey Blocking buffer, following manufacturer's protocol.
# The next day, cells were washed with 1×PBS-0.1% Tween20, and stained with the secondary antibody (diluted 1:800 in Odyssey Blocking buffer, as recommended by the protocol) and with the CellTag 700Stain […]. To lower the background, Tween20 at a final concentration of 0.2% was added to the Odyssey Blocking buffer. 96-well plates were then read at Odyssey CLx Imaging system and images acquired. Data analysis was carried out by the use of Image Studio 2.1 software.
# Paclitaxel was given to the DRG neurons following 7 days of culture at the concentration of 200 nM (Scuteri et al. 2006).
# Effect of DF3966Y in C5α-induced neuronal toxicity In order to determine whether the observed effects may be triggered also by C5a, recombinant mouse C5a 1 μg/ml (111.11 nM) was given to the DRG neurons after 7 days of culture in presence or absence of DF3966Y 1 μM.
# After 24 hr of incubation, acetylated α-Tubulin was quantified using in-cell western technique, as previously described.
# [2] = test system: chemotherapy-induced iatrogenic pain (CIIP) in male Balb/C mice; experiment: CIIP model (paclitaxel), cold response acetone test, DF2593A; assay type: in vivo
# Description: (§4) The experiments were performed in male Balb/c wild type (WT) and in C5aR deficient (C5aR^−/−) mice (6-8 weeks age). For the experiments with DF2593A, animals were housed in the animal care facility of the Ribeirao Preto Medical School, University of Sao Paulo, in plastic cages at 20° C.±1° C. with water and food ad libitum and controlled light/dark cycle. When done oral acute treatment, animals were kept without food for 2-4 hours. Animals were taken to the testing room at least 1 h before experiments and were used only once. Animal care and handling procedures were in accordance with the International Association for the Study of Pain guidelines and with the control of Animal Ethic Committee from Ribeirao Preto Medical School, protocol 120/2014.
# (§5) The protocol used was performed according POLOMANO et al., 2001, adapted to mice. The animals received paclitaxel 4 mg/kg intraperitoneally (i.p.) for four alternate days (days 1, 3, 5, and 7). During treatment period, mechanical and cold allodynia were measured 4 hours after the injection of paclitaxel.
# (§6) DF2593A was orally given in dose of 1 mg/kg at 8 and 14th days after first paclitaxel injection. The effect of drug was evaluated 2, 4, 6 and 24 hours after administration.
# (§7) DF2593A was given orally in a dose of 1 mg/kg, 12 in 12 hours, for 7 days during the induction phase of CIIP. On days 1, 3 5 and 7, the administration of DF2593A was 1 hour before paclitaxel.
# (§8) DF2593A in doses of 10, 30 or 100 μg/5 μL was injected at 8 and 14th days after the first injection of paclitaxel (CIIP).
# In the same apparatus of von Frey test, and nearly 15 minutes after the mechanical test, was performed the acetone test. With a 1 mL syringe, one drop (50 μL) of pure acetone was released allowing the spreading of liquid for the both paw surfaces (dorsal and plantar). All movements as licking, flinching or lifting of paw were recorded with a chronometer in a total testing time of 2 minutes.
# [3] = test system: chemotherapy-induced iatrogenic pain (CIIP) in male Balb/C mice; experiment: CIIP model (paclitaxel), mechanical threshold with von Frey filaments, DF2593A; assay type: in vivo
# Description: as §4, §5, §6, §7, §8
# (§9) In DF2593A experiments, mechanical hyperalgesia was tested using von Frey filaments. Mice were placed in acrylic cages (12×10×17 cm) with wire grid floors in a quiet room 15-30 minutes before the start of testing. A crescent series of filaments were applied on right paw of CIIP mice. The lower filament able to elicit flinching movements was recorded as the mechanical threshold. The animals were tested before and after treatments and the results are expressed as log of mechanical threshold.
# [4] = test system: DRG neurons; experiment: Electrophysiological recordings (whole-cell patch-clamp, current-clamp) of DRG-derived neurons; assay type: cell-based, Sprague Dawley rat; settings: 1 μg/ml C5a alone
# Description: as §1
# Dorsal Root Gangliar (DRG)-derived neurons were cultured for 7 days and then treated in blind with the following combinations: 10 nM Paclitaxel, 10 nM Paclitaxel+1 μM DF3966Y, 1 μg/ml C5a, 1 μg/ml C5a+1 μM DF3966Y.
# The compounds were administered for 1 min 30 sec (short acute stimulation) or 5 minutes (long chronic stimulation). The application of the compounds was followed by a wash-out in the physiological control solution for an equivalent time (about 10 min).
# Electrophysiological recordings were performed by the patch-clamp technique in the whole-cell configuration. The standard extracellr solution was bath applied and contained the following (mM): NaCl 135, KCl 2, CaCl2 2, MgCl2 2, hepes 10, glucose 5, pH 7.4. The standard pipet solution contained the following (mM): potassium aspartate 130, NaCl 10, MgCl2 2, CaCl2 1.3, EGTA 10, Hepes 10, pH 7.3. Recordings were acquired by the pClamp8.2 software and the MultiClamp 700A amplifier (Axon Instruments), in current-clamp mode.
# [5] = test system: DRG neurons; experiment: Dendritic tree area of DRG neurons (image analysis); assay type: cell-based, Sprague Dawley rat; settings: C5a alone (Table 7), relative to UT
# Description: as §1, §2, §3
# (§10) Alpha Tubulin Acetylation DRG-derived neurons were cultured for 7 days and then treated with:
# (§11) • paclitaxel (200 nM, 500 nM, 1 μM and 5 μM, 20 μM) in presence or absence of DF3966Y (0.1, 1 and 10 μM) or DF2593A (0.1, 1 and 10 μM) • or C5a (500 ng/ml and 1 μg/ml) in presence or absence of DF3966Y (1 μM)
# (§12) After 24 hr of treatment, cells were stained by immunofluorescence.
# (§13) Cells were fixed with saccharose-paraformaldehyde then staining was performed overnight. Primary antibodies (anti—Ill Tubulin and anti-synaptotagmin 1) were diluted 1:500 in 1×PBS-4% BSA-2% Normal goat serum and 0.3% Triton x-100. The next day, cells were washed with 1×PBS-4% BSA and secondary antibodies were used diluted 1:500 in 1×PBS-4% BSA-2% Normal goat serum and 0.3% Triton x-100. After 1 hr of incubation, cells were washed with 1×PBS. Hoechst was used as a counterstain.
# (§14) Sixteen images per well were taken with ArrayScan XTI HCA Reader (Thermo Fisher Scientific) with and 40× objective. All the analysis were done with HCS Studio software
# Dendritic arborization directly influences synaptic genesis and input. A well-developed arborization indicates a functional synaptic network. For this reason, the area occupied by dendritic arborization has been quantified.
# (§15) Data are obtained as the sum of the values obtained by the analysis of sixteen fields per well for each experiment. Percentage of the values in respect to the relative mean untreated group was calculated. Mean of the percentages from 4 separate experiments was plotted in the following Tables 2-7.
# [6] = test system: male Balb/C mice; experiment: Intrathecal injection of recombinant C5a, thermal threshold (Hargreaves test); assay type: in vivo; settings: higher doses, between 5 and 7 hours after injection
# Description: as §4
# (§16) Recombinant mouse C5a was given by intrathecal way, in a volume of 5 μL, and its effect follows for 1, 3, 5, 7 and 24 hours after injection.
# Hargreaves test was performed as previous described (HARGREAVES et al., 1988). The animals were habituated on a glass surface with controlled temperature, which allow the homogeneous delivery of infrared light on the paw. After the activation of the light source, a chronometer was turned on. A crescent temperature reached the paw and the chronometer was turned off as soon as the animal did a withdraw movement out the light. The time recorded was considered the heat latency. […]
# [7] = test system: male Balb/C mice; experiment: Intrathecal injection of recombinant C5a, mechanical threshold (von Frey hair test); assay type: in vivo
# Description: as §4, §16, §9
# [8] = test system: DRG neurons; experiment: Cells number of DRG neurons (immunofluorescence, image analysis); assay type: cell-based
# Description: as §1, §2, §3, §10, §11, §12, §13, §14
# (§17) Cells number, synapse number and dentritic arborization were evaluated in untreated cells and in cells stimulated with paclitaxel and C5a alone or in presence of the drug. As marker of chemotherapy-induced toxicity, the total number of synapses on DRG neurons was quantitative evaluated as percentage of the number of synapse with respect to untreated (UT) control.
# as §15
# [9] = test system: DRG neurons; experiment: Synapse number on DRG neurons (synaptotagmin staining, image analysis); assay type: cell-based, Sprague Dawley rat
# Description: as §1, §2, §3, §10, §11, §12, §13, §14
# For synapse count a threshold has been set, in particular all the objects, positive to synaptotagmin staining, in the range 0.365-2.457 μm^2 have been considered as synapses.
# as §17, §15
# [10] = 1 mg/kg oral, 8th and 14th day of CIIP, 2 until 6 hours after administration
# [11] = 1 mg/kg p.o. 12/12 hours for 7 days during induction phase of CIIP, 1 hour before paclitaxel
# [12] = 10, 30 or 100 μg/5 μL intrathecal, established CIIP (8 and 14th day)
molecule,measurement,setting,value
"C[C@@H](NC(=O)CCCN1CCCCC1)c1ccc(OS(=O)(=O)C(F)(F)F)cc1 [DF2593A, N-[(1R)-1-(4-trifluoromethanesulfonyloxy)phenylethyl]-4-piperidin-1-ylbutanamide]",Acetylated α-Tubulin (% of UT),"[1]; drug 0.1 μM under Paclitaxel 200 nM, 24 hr",107.38 % of UT
same,reversal of Paclitaxel-induced increase in acetylated α-Tubulin,"[1]; drug 0.1 μM, Paclitaxel 200 nM",not able to revert
same,Acetylated α-Tubulin (% of UT),"[1]; drug 1 μM under Paclitaxel 200 nM, 24 hr",100.67 % of UT
same,reversal of Paclitaxel-induced increase in acetylated α-Tubulin,"[1]; drug 1 μM, Paclitaxel 200 nM",reverted the Paclitaxel-induced challenge
same,Acetylated α-Tubulin (% of UT),"[1]; drug 10 μM under Paclitaxel 200 nM, 24 hr",70.72 % of UT
same,reduction in acetylated α-Tubulin with respect to control (UT) cells,"[1]; drug 10 μM, Paclitaxel 200 nM",about 25%
same,"cold response, acute oral post treatment",[2]; [10],is reduce after DF2593A treatment
same,"development of cold nociceptive response, chronic pre treatment",[2]; [11],prevents the development
same,"cold allodynia, intrathecal treatment",[2]; [12],improves mechanical and cold allodynia
same,efficacy of the lowest intrathecal dose,"[3]; 10 μg/5 μL intrathecal, 8th day",still statistically significant
same,"mechanical hypersensitivity, acute oral post treatment",[3]; [10],able to reduce the mechanical hypersensitivity
same,duration of reduction of mechanical and cold hypersensitivity after administration,"[3]; 1 mg/kg oral, established pain condition",at least 6 hours
same,"development of mechanical nociceptive response, chronic pre treatment",[3]; [11],prevents the development
same,"mechanical allodynia, intrathecal treatment",[3]; [12],improves mechanical and cold allodynia
same,effect on mechanical and cold response 24 hours after the last dose,"[3]; chronic 1 mg/kg p.o., 24 hours after the last DF2593A dose",no effect is observed
B1,"increase of the firing rate, immediate",[4]; immediate,+55.61%
same,"reduction of electrical activity, longer times of exposure",[4]; longer times of exposure,about 70%
same,levels of acetylated α-Tubulin under C5a,"[1]; C5a 1 μg/ml alone, 24 hr",able to increase the levels of acetylated α-Tubulin
same,% dendritic tree area,[5],102.68 ± 9.48%
same,heat latency after intrathecal C5a,[6],caused a decrease in heat latency
same,mechanical threshold after intrathecal C5a,"[7]; 100, 300 and 600 ng/5 μL intrathecal, mice, up to 24 hours after injection",promoted reduction of mechanical threshold in a dose-dependent manner
same,C5a pro-nociceptive effect in C5aR−/− mice,"[7]; intrathecal C5a, C5aR−/− mice",abrogated
same,% of cell number,"[8]; C5a alone (Table 3), relative to UT",98.69 ± 4.22%
same,neuronal death,[8]; C5a alone or in combination with DF3966Y 1 μM,did not induce neuronal death
same,neuronal activity damage (synapse number),[9]; C5a alone,did not induce neuronal activity damage
same,% of synapse number,"[9]; C5a alone (Table 5), relative to UT",116.90 ± 17.43%
